# Assay results reported in patent US9802958B2, “Tetrahydro[1,8]naphthyridine sulfonamide and related compounds for use as agonists of RORy and the treatment of disease” (Lycera Corporation, priority 2012, dated 2017).
# Target: T1, RORγ-LBD (Homo sapiens, UniProt P51449)
# T1 construct: made in house; host or cells: SF9 insect cells, baculovirus; unpurified lysate used
# T1 sequence (P51449 269-508 limits assumed): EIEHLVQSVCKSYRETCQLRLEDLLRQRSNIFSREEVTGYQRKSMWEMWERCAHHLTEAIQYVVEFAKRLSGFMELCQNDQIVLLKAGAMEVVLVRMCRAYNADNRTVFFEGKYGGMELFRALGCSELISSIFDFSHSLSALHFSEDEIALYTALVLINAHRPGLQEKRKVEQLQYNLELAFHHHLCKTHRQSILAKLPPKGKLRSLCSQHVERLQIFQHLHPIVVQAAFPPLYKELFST
# Assay: RORγ-Ligand Binding Domain (LBD) TR-FRET Assay
# Format: biochemical
# Details: assay measuring EC50 values less than or equal to 20 μM
# Experimental: Exemplary compounds from the above Examples were tested for ability to increase RORγ activity using a RORγ-Ligand Binding Domain (LBD) TR-FRET Assay. Assay procedures and results are described below.
# Recombinant, HIS-tagged RORγ-LBD was expressed in SF9 cells using a baculovirus expression system. Cells were lysed and the lysate was used as a source for RORγ-LBD for the assay. A 1:80 dilution of RORγ-LBD lysate in assay buffer (25 mM HEPES pH 7.0, 100 mM NaCl, 0.01% Tween, 0.1% BSA) was prepared and 5 μL was added to each well (RORγ-LBD final concentration ˜3 nM). Control wells received lysate from SF9 cells not expressing RORγ-LBD.
# Compounds to be tested were diluted to 100× final test concentration in DMSO and further diluted to 4× final test concentration using assay buffer to provide the test compound mixture. An aliquot (5 μL) of the test compound mixture was added to each well.
# A 4× stock of biotinylated-LXXLL peptide from SRC1-2 (Biotin-[…]) was prepared in assay buffer and a 5 μL aliquot added to each well (450 nM final concentration). A 4× solution of europium tagged anti-HIS antibody (2 nM final concentration) and APC conjugated streptavidin (60 nM final concentration) were prepared and a 5 μL aliquot added to each well.
# The final assay mixture was incubated for 4 hours to overnight, and the fluorescence signal was measured on an Envision plate reader: (Excitation filter=340 nm; APC emission=665 nm; Europium emission=615 nm; dichroic mirror=D400/D630; delay time=100 μs, integration time=200 μs).
# EC50 values for test compounds were calculated from the quotient of the fluorescence signal at 665 nm divided by the fluorescence signal at 615 nm using GraphPad Prism software.
row,SMILES,promotion of RORγ activity
1,Cc1cccc(S(=O)(=O)N2CCOc3ccc(OC(C)c4ccccc4)nc32)c1 (stereo not drawn) [Compound 6],No promotion of RORγ activity was detected

# Same assay, conditions: increase of RORγ activity; recombinant HIS-tagged RORγ-LBD, biotinylated SRC1-2 LXXLL peptide
row,SMILES,EC50 [µM]
1,"O=C(Nc1ccc2c(n1)N(S(=O)(=O)c1ccc(F)cc1)CCC2)c1c(F)cccc1F [Compound 1, 2,6-Difluoro-N-(8-(4-fluorobenzenesulfonyl)-5,6,7,8-tetrahydro[1,8]naphthyridin-2-yl)benzamide]",≤ 15
2,"Cc1cccc(S(=O)(=O)N2CCOc3ccc(NC(=O)c4c(Cl)cccc4Cl)nc32)c1 [Compound 2, 2,6-Dichloro-N-[4-(toluene-3-sulfonyl)-3,4-dihydro-2H-pyrido[3,2-b][1,4]oxazin-6-yl]-benzamide]",≤ 15

# More lines, now with the values ahead:
row,EC50 [µM],SMILES
1,≤ 15,"Cc1cccc(S(=O)(=O)N2CCOc3ccc(NC(=O)C(C)c4ccccc4)nc32)c1 (stereo not drawn) [Compound 3, 2-Phenyl-N-[4-(toluene-3-sulfonyl)-3,4-dihydro-2H-pyrido[3,2-b][1,4]oxazin-6-yl]-propionamide]"
2,≤ 15,Cc1cccc(S(=O)(=O)N2CCOc3ccc(OCc4ccccc4)nc32)c1 [Compound 4]
3,≤ 15,Cc1cccc(S(=O)(=O)N2CCOc3ccc(OCc4c(Cl)cccc4Cl)nc32)c1 [Compound 5]
